{"source": "paper PMC4710668", "about": "“Bioactivation of food genotoxicants 5-hydroxymethylfurfural and furfuryl alcohol by sulfotransferases from human, mouse and rat: a comparative study” (Archives of Toxicology, 2014)", "key": {"hSULT1A3": {"biological_target": "T1, hSULT1A3 (Homo sapiens, UniProt P0DMM9)", "T1 construct": "made in house; host or cells: Salmonella typhimurium TA1538 (cytosolic fraction, not purified)", "T1 sequence (P0DMM9 whole entry)": "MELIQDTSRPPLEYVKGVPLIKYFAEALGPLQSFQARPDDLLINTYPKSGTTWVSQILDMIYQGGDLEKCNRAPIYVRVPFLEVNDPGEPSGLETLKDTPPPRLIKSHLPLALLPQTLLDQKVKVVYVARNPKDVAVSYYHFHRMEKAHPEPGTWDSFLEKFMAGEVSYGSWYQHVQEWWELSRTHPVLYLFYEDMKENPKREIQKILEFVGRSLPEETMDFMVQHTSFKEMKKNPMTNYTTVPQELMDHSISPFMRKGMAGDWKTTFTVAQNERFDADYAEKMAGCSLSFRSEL", "assay": "FFA sulfoconjugation assay (N6-MF-A formation with adenosine as scavenger)", "format": "biochemical", "how_it_was_run": "(§1)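 Cytosols from S. typhimurium TA1538 expressing individual SULTs are incubated at 37 °C for 20 min with FFA plus 10 mM adenosine. Reactions are quenched in methanol containing [15N5]N6-MF-A, and supernatants are analysed by UPLC-MS/MS. Spontaneous, SULT-independent adduct formation is corrected using SULT-deficient cytosols.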"}, "hSULT4A1": {"biological_target": "T2, hSULT4A1 (Homo sapiens, UniProt Q9BR01)", "T2 construct": "made in house; host or cells: Salmonella typhimurium TA1538 (cytosolic fraction, not purified)", "T2 sequence (Q9BR01 1-284)": "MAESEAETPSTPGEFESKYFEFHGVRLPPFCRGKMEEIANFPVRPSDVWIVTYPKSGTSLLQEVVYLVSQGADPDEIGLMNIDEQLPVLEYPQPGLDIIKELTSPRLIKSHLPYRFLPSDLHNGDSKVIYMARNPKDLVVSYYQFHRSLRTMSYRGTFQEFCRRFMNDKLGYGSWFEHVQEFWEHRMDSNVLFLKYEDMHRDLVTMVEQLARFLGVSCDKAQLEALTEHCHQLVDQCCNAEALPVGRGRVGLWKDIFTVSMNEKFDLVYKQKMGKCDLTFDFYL", "assay": "FFA sulfoconjugation assay (N6-MF-A formation with adenosine as scavenger)", "format": "biochemical", "how_it_was_run": "as §1"}, "mSult1b1": {"biological_target": "T3, mSult1b1 (Mus musculus, UniProt Q9QWG7)", "T3 construct": "made in house; host or cells: Salmonella typhimurium TA1538 (cytosolic fraction, enzyme not purified)", "T3 sequence (Q9QWG7 whole entry)": "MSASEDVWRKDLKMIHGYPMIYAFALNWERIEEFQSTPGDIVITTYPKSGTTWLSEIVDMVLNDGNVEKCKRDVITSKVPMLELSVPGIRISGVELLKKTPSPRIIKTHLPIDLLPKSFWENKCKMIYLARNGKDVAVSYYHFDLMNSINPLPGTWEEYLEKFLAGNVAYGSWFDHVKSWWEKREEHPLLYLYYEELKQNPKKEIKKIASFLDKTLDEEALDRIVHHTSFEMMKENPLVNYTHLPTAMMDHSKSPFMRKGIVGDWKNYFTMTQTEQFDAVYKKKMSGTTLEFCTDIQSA", "assay": "FFA sulfoconjugation assay (N6-MF-A formation with adenosine as scavenger)", "format": "biochemical", "how_it_was_run": "as §1"}, "male B6C3F1 mice": {"system": "male B6C3F1 mice", "settings": "32 ppm FFA in the air (equivalent to 60 mg FFA/kg bw/day), ref National Toxicology Program [1999]; cited from earlier work"}}}
{"smiles": "OCc1ccco1", "note": "[FFA, furfuryl alcohol]", "values": [{"measurement": "Rate of N6-MF-A formation", "setting": "hSULT1A3; 1 mM FFA", "result": "27.3 ± 0.5", "unit": "fmol N ^6-MF-A/mg/min"}, {"measurement": "Rate of N6-MF-A formation (corr.)", "setting": "hSULT1A3; 1 mM FFA, corrected by actual SULT concentration in the cytosolic preparation", "result": "1,950 ± 30 fmol N ^6-MF-A/mg/min"}, {"measurement": "Rate of N6-MF-A formation", "setting": "hSULT1A3; 10 mM FFA", "result": "226 ± 3", "unit": "fmol N ^6-MF-A/mg/min"}, {"measurement": "Rate of N6-MF-A formation", "setting": "hSULT4A1; 0.1 mM FFA", "result": "<18", "unit": "fmol N ^6-MF-A/mg/min"}, {"measurement": "Rate of N6-MF-A formation", "setting": "hSULT4A1; 1 mM FFA", "result": "<20", "unit": "fmol N ^6-MF-A/mg/min"}, {"measurement": "Rate of N6-MF-A formation", "setting": "hSULT4A1; 10 mM FFA", "result": "<44", "unit": "fmol N ^6-MF-A/mg/min"}, {"measurement": "Rate of N6-MF-A formation", "setting": "mSult1b1; 0.1 mM FFA", "result": "<18", "unit": "fmol N ^6-MF-A/mg/min"}, {"measurement": "Rate of N6-MF-A formation", "setting": "mSult1b1; 10 mM FFA", "result": "74.3 ± 1.6", "unit": "fmol N ^6-MF-A/mg/min"}, {"measurement": "carcinogenic effect", "setting": "male B6C3F1 mice", "result": "induced renal tubule neoplasms"}]}
